Test system: adult patients with OSA and ES
Test: Safety and tolerability (TEAEs, vital signs), 12-week parallel study in OSA
Type: in vivo, human
Conditions: for Anxiety, incidence / Any TEAE, incidence / Decreased appetite, incidence / Diarrhea, incidence / Discontinuations due to TEAEs, incidence / Dry mouth, incidence / Feeling jittery, incidence / Headache, incidence / Insomnia, incidence / Irritability, incidence / Nasopharyngitis, incidence / Nausea, incidence / Pruritus, incidence / Serious TEAEs, incidence / Sinusitis, incidence: safety population
Description: The study was a 12-week, double-blind, placebo-controlled, parallel design study as described in greater detail in Example 1 (Schweitzer et al., Sleep 40(Abstract Supplement):A237. Abstract 0641 (2017)). Patients were randomized (1:1:2:2:2) to APC 37.5, 75, 150, 300 mg, or placebo for 12 weeks, and were stratified by adherence or non-adherence with primary OSA therapy (adherent definition was use for ≥4 hours per night on >70% of nights). Two patient-reported measures were included as secondary efficacy outcomes to evaluate the effects of APC on functional status and work productivity and activity impairment at baseline and weeks 1, 4, 8, and 12. The Functional Outcomes of Sleep questionnaire short version (FOSQ-10) (Chasens et al., Sleep 32(7):915 (2009)) evaluated the effects of ES on functioning. The Work Productivity and Activity Impairment questionnaire for Specific Health Problems (WPAI:SHP) (Reilly et al., Pharmacoeconomics 4(5):353 (1993); Reilly, Work Productivity and Activity Impairment Questionnaire: Specific Health Problem V2.0 (WPAI: SHP). www.reillyassociates.net/WPAI_SHP) evaluated work productivity impairment among employed patients and overall activity impairment outside of work among all patients for the past 7 days. Four outcomes are available from the WPAI:SHP: Absenteeism (percent work time missed due to health); Presenteeism (percent impairment while working due to health); Percent overall work impairment (calculated from absenteeism and presenteeism); and Percent activity impairment due to health. The FOSQ-10 was evaluated as change over time compared with placebo (least squares (LS) mean); the 4 WPAI outcomes were evaluated at week 12 compared to placebo. Efficacy analyses were based on the modified intent-to-treat population (mITT) and there was no multiplicity adjustment for the FOSQ-10 or WPAI:SHP. Safety and tolerability were assessed based on treatment-emergent adverse events (TEAEs), vital signs, electrocardiogram test, physical exams, Columbia-Suicide Severity Rating Scale, and laboratory tests in the safety population.
Efficacy analyses were based on the modified intent-to-treat (mITT) population; there was no multiplicity adjustment for the SF-36 v2 or EQ-5D-5L. SF-36 v2 scores were scaled from 0 to 100 (higher scores on all scales represent better health), transformed to norm-based scores using US general-population data from SF-36 Manuals (Ware Jr et al., User's Manual for the SF-36v2™ Health Survey (2nd ed.). QualityMetric Incorporated (Lincoln, RI); 2007), and were analyzed using a mixed-effect model with repeated measures (MMRM); and baseline value of the efficacy endpoint was used to determine differences in changes from baseline. EQ-5D-5L VAS and index-score data were analyzed using an MMRM model. Safety and tolerability were assessed based on treatment-emergent adverse events (TEAEs), vital signs, electrocardiogram test, physical exams, and laboratory tests.

## NC(=O)OC[C@H](N)Cc1ccccc1 [JZP-110, (R)-2-amino-3-phenylpropyl carbamate]
37.5 mg
  Serious TEAEs reported (events): bile duct obstruction (n=1) and streptococcal endocarditis (n=1)
37.5 mg (n = 58)
  Anxiety, incidence: 1 (1.7) n (%)
  Any TEAE, incidence: 37 (63.8) n (%)
  Decreased appetite, incidence: 1 (1.7) n (%)
  Diarrhea, incidence: 1 (1.7) n (%)
  Discontinuations due to TEAEs, incidence: 3 (5.2) n (%)
  Dry mouth, incidence: 1 (1.7) n (%)
  Feeling jittery, incidence: 3 (5.2) n (%)
  Headache, incidence: 4 (6.9) n (%)
  Insomnia, incidence: 1 (1.7) n (%)
  Irritability, incidence: 3 (5.2) n (%)
  Nasopharyngitis, incidence: 2 (3.4) n (%)
  Nausea, incidence: 3 (5.2) n (%)
  Pruritus, incidence: 3 (5.2) n (%)
  Serious TEAEs, incidence: 2 (3.4) n (%)
  Sinusitis, incidence: 1 (1.7) n (%)
37.5 mg, listed as APC
  Serious TEAEs reported (events): bile duct obstruction (n=1), and streptococcal endocarditis (n=1)
75 mg (n = 62)
  Anxiety, incidence: 2 (3.2) n (%)
  Any TEAE, incidence: 30 (48.4) n (%)
  Decreased appetite, incidence: 3 (4.8) n (%)
  Diarrhea, incidence: 3 (4.8) n (%)
  Discontinuations due to TEAEs, incidence: 2 (3.2) n (%)
  Dry mouth, incidence: 1 (1.6) n (%)
  Feeling jittery, incidence: 3 (4.8) n (%)
  Headache, incidence: 5 (8.1) n (%)
  Insomnia, incidence: 0 n (%)
  Irritability, incidence: 0 n (%)
  Nasopharyngitis, incidence: 1 (1.6) n (%)
  Nausea, incidence: 3 (4.8) n (%)
  Pruritus, incidence: 0 n (%)
  Serious TEAEs, incidence: 0 n (%)
  Sinusitis, incidence: 4 (6.5) n (%)
150 mg
  Serious TEAEs reported (events): hyperglycemia (n=1)
150 mg (n = 117)
  Anxiety, incidence: 6 (5.1) n (%)
  Any TEAE, incidence: 83 (70.9) n (%)
  Decreased appetite, incidence: 9 (7.7) n (%)
  Diarrhea, incidence: 5 (4.3) n (%)
  Discontinuations due to TEAEs, incidence: 5 (4.3) n (%)
  Dry mouth, incidence: 5 (4.3) n (%)
  Feeling jittery, incidence: 1 (0.9) n (%)
  Headache, incidence: 10 (8.5) n (%)
  Insomnia, incidence: 3 (2.6) n (%)
  Irritability, incidence: 4 (3.4) n (%)
  Nasopharyngitis, incidence: 7 (6.0) n (%)
  Nausea, incidence: 10 (8.5) n (%)
  Pruritus, incidence: 1 (0.9) n (%)
  Serious TEAEs, incidence: 1 (0.9) n (%)
  Sinusitis, incidence: 0 n (%)
300 mg (n = 118)
  Anxiety, incidence: 16 (13.6) n (%)
  Any TEAE, incidence: 91 (77.1) n (%)
  Decreased appetite, incidence: 14 (11.9) n (%)
  Diarrhea, incidence: 8 (6.8) n (%)
  Discontinuations due to TEAEs, incidence: 15 (12.7) n (%)
  Dry mouth, incidence: 9 (7.6) n (%)
  Feeling jittery, incidence: 7 (5.9) n (%)
  Headache, incidence: 17 (14.4) n (%)
  Insomnia, incidence: 11 (9.3) n (%)
  Irritability, incidence: 1 (0.8) n (%)
  Nasopharyngitis, incidence: 8 (6.8) n (%)
  Nausea, incidence: 12 (10.2) n (%)
  Pruritus, incidence: 0 n (%)
  Serious TEAEs, incidence: 0 n (%)
  Sinusitis, incidence: 3 (2.5) n (%)
12-week OSA study
  Mean increase from baseline in diastolic blood pressure: 1-3 mmHg
  Mean increase from baseline in pulse rate: 2-5 beats/minute
  Mean increase from baseline in systolic blood pressure: 1-4 mmHg
All doses (n = 355)
  Anxiety, incidence: 25 (7.0) n (%)
  Any TEAE, incidence: 241 (67.9) n (%)
  Decreased appetite, incidence: 27 (7.6) n (%)
  Diarrhea, incidence: 17 (4.8) n (%)
  Discontinuations due to TEAEs, incidence: 25 (7.0) n (%)
  Dry mouth, incidence: 16 (4.5) n (%)
  Feeling jittery, incidence: 14 (3.9) n (%)
  Headache, incidence: 36 (10.1) n (%)
  Insomnia, incidence: 15 (4.2) n (%)
  Irritability, incidence: 8 (2.3) n (%)
  Nasopharyngitis, incidence: 18 (5.1) n (%)
  Nausea, incidence: 28 (7.9) n (%)
  Pruritus, incidence: 4 (1.1) n (%)
  Serious TEAEs, incidence: 3 (0.8) n (%)
  Sinusitis, incidence: 8 (2.3) n (%)

— patent US11865098B1, “Methods and compositions for treating excessive sleepiness” (Axsome Malta Ltd., priority 2017, dated 2024)
